Measurements from patent publication US11041000B2, “Peptide inhibitors of interleukin-23 receptor and their use to treat inflammatory diseases” (priority 2019, dated 2021).
Numbered stars: 1 amine (or outer) side, 2 acyl side, 3 side chain; on linkers, the order of the positions; unused ones are H or OH. Bridge positions count the residues as written; N and C are the ends. Square brackets hold non-standard residues; d marks the D form. Peptide text beside a SMILES is read from it. Trp(7-Me) = Cc1cccc2c(C[C@H](N)C(=O)O)c[nH]c12; Abu(4-yl) = O=C([C@H](CC[*:3])N[*:1])[*:2]; 2Nal = N[C@@H](Cc1ccc2ccccc2c1)C(=O)O; d2Nal = N[C@H](Cc1ccc2ccccc2c1)C(=O)O; AEF = NCCOc1ccc(C[C@H](N)C(=O)O)cc1; αMeF = C[C@](N)(Cc1ccccc1)C(=O)O; Cit = NC(=O)NCCC[C@H](N)C(=O)O; Pen = CC(C)(S)[C@H](N)C(=O)O; αMeK = C[C@](N)(CCCCN)C(=O)O; Aib = CC(C)(N)C(=O)O; βAla = NCCC(=O)O

How the values were obtained:
Type in all cases: in vitro ADME
[1] = Stability in simulated intestinal fluid (SIF); settings: simulated intestinal fluid with pancreatin, pH 6.8, 37° C., matrix is 100 fold dilution of standard SIF concentration; for half-life at 20 μM: read-out: SIF t½ (converted); for SIF t½: 20 μM
[2] = Stability in human fecal homogenate; settings: 20% fecal homogenate (supernatant), pH 6.8, 20% human fecal homogenate, anaerobic, 37° C., read-out: t½: Human Feces anaerobic (converted)
Description: (§1) Centrifuged the homogenate at 2800×g for 15 min. The supernatant is taken out and used for incubations. […] The final test compound concentration was 20 μM.

[3] = Stability in cynomolgus monkey fecal homogenate; settings: 20% fecal homogenate (supernatant), pH 6.8, 20% cynomolgus monkey fecal homogenate, anaerobic, 37° C., read-out: t½: Monkey Feces anaerobic (converted)
Description: as §1

Stability in rat plasma = settings: both sexes, SD rat plasma, EDTA, 37° C., read-out: t½: Rat Plasma EDTA (converted)

| Compound | half-life at 20 μM [1] [h] | half-life at 20 μM [2] [h] | half-life at 20 μM [3] [h] | half-life at 20 μM (Stability in rat plasma) [h] | SIF t½ [1] [h] |
| --- | --- | --- | --- | --- | --- |
| CC(=O)NCCCC[C@@H]1NC(=O)[C@H](Cc2c[nH]c3c(C)cccc23)NC(=O)[C@H]([C@@H](C)O)NC(=O)[C@H](CCC(N)=O)NC(=O)[C@@H](NC(=O)[C@@H](CCCNC(=N)N)NC(C)=O)CCSC[C@@H](C(=O)N[C@@H](Cc2ccc(OCCN)cc2)C(=O)N[C@@H](Cc2ccc3ccccc3c2)C(=O)N[C@@](C)(CCCCN)C(=O)N[C@@H](CCCCNC(C)=O)C(=O)N[C@@H](CC(N)=O)C(=O)N[C@H](CCCCN)C(N)=O)NC1=O [compound 324] (Ac-[dR][Abu(4-yl)]QT[Trp(7-Me)]K(Ac)C[AEF][2Nal][αMeK]K(Ac)N[dK]-NH2; thioether 2-7) | 13 | > 24 | 13 | > 24 |  |
| COc1cccc2c(C[C@@H]3NC(=O)[C@H]([C@@H](C)O)NC(=O)[C@H](CC(N)=O)NC(=O)[C@@H](NC(C)=O)C(C)(C)SSC(C)(C)[C@@H](C(=O)N[C@@H](Cc4ccc(OCCN)cc4)C(=O)N[C@@H](Cc4ccc5ccccc5c4)C(=O)N[C@@](C)(CCCCN)C(=O)N[C@@H](CCCCNC(C)=O)C(=O)N[C@@H](CC(N)=O)C(=O)N[C@H](CCCCN)C(N)=O)NC(=O)[C@H](CCC(N)=O)NC3=O)c[nH]c12 [compound 297] |  | > 24 | > 24 | > 24 | 24 |
| CC(=O)NCCCC[C@H](NC(=O)[C@](C)(CCCCN)NC(=O)[C@H](Cc1ccc2ccccc2c1)NC(=O)[C@H](Cc1ccc(OCCN)cc1)NC(=O)[C@H]1NC(=O)[C@H](CCCNC(N)=O)NC(=O)[C@H](Cc2c[nH]c3c(C)cccc23)NC(=O)[C@H]([C@@H](C)O)NC(=O)[C@H](CC(N)=O)NC(=O)[C@@H](NC(C)=O)C(C)(C)SSC1(C)C)C(=O)N[C@@H](CC(N)=O)C(=O)NC(C)(C)C(=O)NCCC(N)=O [compound 340] (Ac-[Pen]NT[Trp(7-Me)][Cit][Pen][AEF][2Nal][αMeK]K(Ac)N[Aib][βAla]-NH2; disulfide 1-6) | 17 | > 24 | > 24 | > 24 |  |
| CC(=O)NCCCC[C@@H]1NC(=O)[C@H](Cc2c[nH]c3c(C)cccc23)NC(=O)[C@H]([C@@H](C)O)NC(=O)[C@H](CCCNC(N)=O)NC(=O)[C@@H](NC(C)=O)C(C)(C)SSC(C)(C)[C@@H](C(=O)N[C@@H](Cc2ccc(OCCN)cc2)C(=O)N[C@@H](Cc2ccc3ccccc3c2)C(=O)N[C@@](C)(CCCCN)C(=O)N[C@@H](CCCCNC(C)=O)C(=O)N[C@@H](CC(N)=O)C(=O)N[C@H](CC(C)C)C(N)=O)NC1=O [compound 331] (Ac-[Pen][Cit]T[Trp(7-Me)]K(Ac)[Pen][AEF][2Nal][αMeK]K(Ac)N[dL]-NH2; disulfide 1-6) | 15 | > 24 | > 24 | > 24 |  |
| CC(=O)NCCCC[C@H](NC(=O)[C@](C)(CCCCN)NC(=O)[C@H](Cc1ccc2ccccc2c1)NC(=O)[C@H](Cc1ccc(OCCN)cc1)NC(=O)[C@H]1NC(=O)[C@H](CCCNC(N)=O)NC(=O)[C@H](Cc2c[nH]c3c(C)cccc23)NC(=O)[C@H]([C@@H](C)O)NC(=O)[C@H](CC(N)=O)NC(=O)[C@@H](NC(C)=O)C(C)(C)SSC1(C)C)C(=O)N[C@@H](CC(N)=O)C(=O)NC(C)(C)C(=O)NCC(N)=O [compound 341] (Ac-[Pen]NT[Trp(7-Me)][Cit][Pen][AEF][2Nal][αMeK]K(Ac)N[Aib]G-NH2; disulfide 1-6) | 17 | > 24 | > 24 | > 24 |  |
| CC(=O)NCCCC[C@@H]1NC(=O)[C@H](Cc2c[nH]c3c(C)cccc23)NC(=O)[C@H]([C@@H](C)O)NC(=O)[C@H](CC(N)=O)NC(=O)[C@@H](NC(C)=O)C(C)(C)SSC(C)(C)[C@@H](C(=O)N[C@@H](Cc2ccc(OCCN)cc2)C(=O)N[C@@H](Cc2ccc3ccccc3c2)C(=O)N[C@@](C)(CCCCN)C(=O)N[C@@H](CCCCNC(C)=O)C(=O)N[C@@H](CO)C(=O)N[C@H](CCCCN)C(N)=O)NC1=O [compound 352] | 7 | > 24 | > 24 | > 24 |  |
| CC(=O)NCCCC[C@H](NC(=O)[C@](C)(CCCCN)NC(=O)[C@H](Cc1ccc2ccccc2c1)NC(=O)[C@H](Cc1ccc(OCCN)cc1)NC(=O)[C@H]1NC(=O)[C@H](CCCNC(N)=O)NC(=O)[C@H](Cc2c[nH]c3c(C)cccc23)NC(=O)[C@H]([C@@H](C)O)NC(=O)[C@H](CC(N)=O)NC(=O)[C@@H](NC(C)=O)C(C)(C)SSC1(C)C)C(=O)N[C@@H](CC(N)=O)C(=O)NC(C)(C)C(=O)N[C@H](Cc1ccccc1)C(N)=O [compound 346] (Ac-[Pen]NT[Trp(7-Me)][Cit][Pen][AEF][2Nal][αMeK]K(Ac)N[Aib][dF]-NH2; disulfide 1-6) | 19 | > 24 | > 24 | 24 |  |
| CC(=O)NCCCC[C@@H]1NC(=O)[C@H](Cc2c[nH]c3c(C)cccc23)NC(=O)[C@H]([C@@H](C)O)NC(=O)[C@H](CCCNC(=N)N)NC(=O)[C@@H](NC(C)=O)C(C)(C)SSC(C)(C)[C@@H](C(=O)N[C@@H](Cc2ccc(OCCN)cc2)C(=O)N[C@@H](Cc2ccc3ccccc3c2)C(=O)N[C@@](C)(CCCCN)C(=O)N[C@@H](CCCCNC(C)=O)C(=O)N[C@@H](CC(N)=O)C(=O)N[C@H](CC(C)C)C(N)=O)NC1=O [compound 336] (Ac-[Pen]RT[Trp(7-Me)]K(Ac)[Pen][AEF][2Nal][αMeK]K(Ac)N[dL]-NH2; disulfide 1-6) | 10 | > 24 | > 24 | > 24 |  |
| CC(=O)NCCCC[C@@H]1NC(=O)[C@H](Cc2c[nH]c3c(C)cccc23)NC(=O)[C@H]([C@@H](C)O)NC(=O)[C@H](CCC(N)=O)NC(=O)[C@@H](NC(=O)[C@@H](CCCNC(=N)N)NC(C)=O)CCSC[C@@H](C(=O)N[C@@H](Cc2ccc(OCCN)cc2)C(=O)N[C@@H](Cc2ccc3ccccc3c2)C(=O)N[C@@](C)(CCCCN)C(=O)N[C@@H](CCCCNC(C)=O)C(=O)N[C@@H](CC(N)=O)C(=O)N[C@@](C)(Cc2ccccc2)C(N)=O)NC1=O [compound 327] (Ac-[dR][Abu(4-yl)]QT[Trp(7-Me)]K(Ac)C[AEF][2Nal][αMeK]K(Ac)N[αMeF]-NH2; thioether 2-7) |  | > 24 | 24 | > 24 | 24 |
| CC(=O)NCCCC[C@H](NC(=O)[C@](C)(CCCCN)NC(=O)[C@H](Cc1ccc2ccccc2c1)NC(=O)[C@H](Cc1ccc(OCCN)cc1)NC(=O)[C@H]1NC(=O)[C@H](CCCNC(N)=O)NC(=O)[C@H](Cc2c[nH]c3c(C)cccc23)NC(=O)[C@H]([C@@H](C)O)NC(=O)[C@H](CC(N)=O)NC(=O)[C@@H](NC(C)=O)C(C)(C)SSC1(C)C)C(=O)N[C@@H](CC(N)=O)C(=O)NC(C)(C)C(=O)N[C@H](Cc1ccc2ccccc2c1)C(N)=O [compound 348] (Ac-[Pen]NT[Trp(7-Me)][Cit][Pen][AEF][2Nal][αMeK]K(Ac)N[Aib][d2Nal]-NH2; disulfide 1-6) | 13 | > 24 | > 24 | > 24 |  |
| CC(=O)NCCCC[C@@H]1NC(=O)[C@H](Cc2c[nH]c3c(C)cccc23)NC(=O)[C@H]([C@@H](C)O)NC(=O)[C@H](C)NC(=O)[C@@H](NC(C)=O)C(C)(C)SSC(C)(C)[C@@H](C(=O)N[C@@H](Cc2ccc(OCCN)cc2)C(=O)N[C@@H](Cc2ccc3ccccc3c2)C(=O)N[C@@](C)(CCCCN)C(=O)N[C@@H](CCCCNC(C)=O)C(=O)N[C@@H](CC(N)=O)C(=O)N[C@H](CC(C)C)C(N)=O)NC1=O [compound 328] (Ac-[Pen]AT[Trp(7-Me)]K(Ac)[Pen][AEF][2Nal][αMeK]K(Ac)N[dL]-NH2; disulfide 1-6) | 23 | > 24 | > 24 | > 24 |  |
| CCCCC(=O)NCCCC[C@H](NC(=O)[C@](C)(CCCCN)NC(=O)[C@H](Cc1ccc2ccccc2c1)NC(=O)[C@H](Cc1ccc(OCCN)cc1)NC(=O)[C@H]1NC(=O)[C@H](CCCCNC(C)=O)NC(=O)[C@H](Cc2c[nH]c3c(C)cccc23)NC(=O)[C@H]([C@@H](C)O)NC(=O)[C@H](CC(N)=O)NC(=O)[C@@H](NC(C)=O)C(C)(C)SSC1(C)C)C(=O)N[C@@H](CC(N)=O)C(=O)N[C@H](CC(C)C)C(N)=O [compound 361] |  | > 24 | > 24 | > 24 | 24 |
| CC(=O)NCCCC[C@@H]1NC(=O)[C@H](Cc2c[nH]c3c(C)cccc23)NC(=O)[C@H]([C@@H](C)O)NC(=O)[C@H](CC(N)=O)NC(=O)[C@@H](NC(C)=O)C(C)(C)SSC(C)(C)[C@@H](C(=O)N[C@@H](Cc2ccc(OCCN)cc2)C(=O)N[C@@H](Cc2ccc3ccccc3c2)C(=O)N[C@@](C)(CC(C)C)C(=O)N[C@@H](CCCCNC(C)=O)C(=O)N[C@@H](CC(N)=O)C(=O)N[C@H](CC(N)=O)C(N)=O)NC1=O [compound 354] | 11 | > 24 | > 24 | 7 |  |
| CC(=O)NCCCC[C@H](NC(=O)[C@](C)(CCCCN)NC(=O)[C@H](Cc1ccc2ccccc2c1)NC(=O)[C@H](Cc1ccc(OCCN)cc1)NC(=O)[C@H]1NC(=O)[C@H](CCCCNC(=O)CN)NC(=O)[C@H](Cc2c[nH]c3c(C)cccc23)NC(=O)[C@H]([C@@H](C)O)NC(=O)[C@H](CC(N)=O)NC(=O)[C@@H](NC(C)=O)C(C)(C)SSC1(C)C)C(=O)N[C@@H](CC(N)=O)C(=O)N[C@H](CC(C)C)C(N)=O [compound 320] | 21 | > 24 | 15 | > 24 |  |
